Laboratory results as given in ChEMBL document CHEMBL5058564, “EUbOPEN Chemogenomics Library 2 (Incucyte)” (2022).

Legend:
Type in all cases: toxicity, cell-based
HEK-293T = test: Incucyte cell viability with HEK293T; conditions: human, 10 µM, compound concentration 10 uM
Fibroblast = test: Incucyte cell viability with human fibroblast; conditions: 10 µM, compound concentration 10 uM
U2OS = test: Incucyte cell viability with U2OS; conditions: human, 10 µM, compound concentration 10 uM
[1] = 0 h, replicate number 1, timepoint 0 hours
[2] = 0 h, replicate number 2, timepoint 0 hours
[3] = 12 h, replicate number 1, timepoint 12 hours
[4] = 12 h, replicate number 2, timepoint 12 hours
[5] = 18 h, replicate number 2, timepoint 18 hours
[6] = 6 h, replicate number 1, timepoint 6 hours
[7] = 6 h, replicate number 2, timepoint 6 hours
[8] = 18 h, replicate number 1, timepoint 18 hours
[9] = 24 h, replicate number 1, timepoint 24 hours
[10] = 24 h, replicate number 2, timepoint 24 hours
Also: unitless GR value; below 1 slowed growth and below 0 cell loss.

Compound | Growth Rate (HEK-293T; [1]) | Growth Rate (HEK-293T; [2]) | Growth Rate (HEK-293T; [3]) | Growth Rate (HEK-293T; [4]) | Growth Rate (HEK-293T; [5]) | Growth Rate (Fibroblast; [2]) | Growth Rate (Fibroblast; [6]) | Growth Rate (Fibroblast; [7]) | Growth Rate (Fibroblast; [3]) | Growth Rate (Fibroblast; [8]) | Growth Rate (Fibroblast; [9]) | Growth Rate (U2OS; [1]) | Growth Rate (U2OS; [7]) | Growth Rate (U2OS; [5]) | Growth Rate (U2OS; [10]) | Growth Rate (HEK-293T; [8]) | Growth Rate (Fibroblast; [1]) | Growth Rate (HEK-293T; [6]) | Growth Rate (HEK-293T; [9]) | Growth Rate (Fibroblast; [4]) | also measured
CSc1nc(NC2CCCC2)c([N+](=O)[O-])c(NC2CCCC2)n1 [GS-39783] | 0.5 | 0.78 | 0.97 | 0.85 | 0.92 | 0.9 | -0.14 | 0.69 | -0.14 | 0.18 | 0.19 | 0.05 | 0.83 | 0.75 | 0.92 |  |  |  |  |  | Growth Rate (U2OS; [2]): -1; Growth Rate (U2OS; [4]): 0.75
COc1cc(NC(=O)CCN2CCC(OC(=O)Nc3ccccc3-c3ccccc3)CC2)c(Cl)cc1CNC[C@H](O)c1ccc(O)c2[nH]c(=O)ccc12 [BATEFENTEROL] | -0.23 | 0.01 | 0.88 | 0.79 | 1 | 0.38 |  |  |  |  |  |  |  | 0.95 | 0.9 | 0.8 | -0.65 |  |  |  | Growth Rate (U2OS; [2]): -1; Growth Rate (U2OS; [8]): 0.93; Growth Rate (U2OS; [9]): 1
Cc1cc(C)cc([C@@H]2c3cc(C)ccc3NC(=O)CN2C(=O)c2ccc(Br)s2)c1 | 0.35 | 0.57 | 0.65 | 0.79 | 0.69 | 0.74 |  |  |  |  | 1 |  |  | 0.81 | 0.89 | 0.61 | 0.17 | 0.88 | 0.46 |  | Growth Rate (HEK-293T; [10]): 0.7; Growth Rate (U2OS; [8]): 0.98
Cn1cnc(-c2cc3nccc(Oc4ccc(NC(=S)NC(=O)Cc5ccccc5)cc4F)c3s2)c1 |  |  | -0.02 | 0.34 | 0.64 | 0.94 | 0.43 | -0.42 | -0.11 | 0.43 | 0.31 | -0.11 |  | 0.93 | 0.98 | 0.28 |  | -0.37 | 0.6 | 0.3 | Growth Rate (HEK-293T; [7]): -0.26; Growth Rate (HEK-293T; [10]): 0.99; Growth Rate (Fibroblast; [5]): 0.77; Growth Rate (U2OS; [2]): -0.99; Growth Rate (U2OS; [4]): 0.95
CN(C)CCn1cc(S(=O)(=O)c2cccc(F)c2)c2cccnc21.Cl.Cl | 0.41 | 0.35 |  |  |  | 0.07 | -0.17 | 0.86 | 0.56 | 0.65 | 0.75 |  | 0.76 |  |  |  | -0.06 |  |  | 0.68 | Growth Rate (HEK-293T; [7]): 0.9; Growth Rate (Fibroblast; [5]): 0.64; Growth Rate (Fibroblast; [10]): 0.57; Growth Rate (U2OS; [6]): 0.56; Growth Rate (U2OS; [3]): 0.39; Growth Rate (U2OS; [4]): 0.98; Growth Rate (U2OS; [8]): 0.8; Growth Rate (U2OS; [9]): 0.86
O=C(CCCc1ccccc1)Nc1nc2ccccc2c(=O)s1 |  | 0.98 | 0.13 |  | 0.95 | 0.6 | -0.7 | -0.65 | -0.62 | -0.7 | -0.59 | -0.37 | 0.67 | 0.76 | 0.84 | 0.34 |  | 0.03 | 0.34 | -0.39 | Growth Rate (HEK-293T; [10]): 0.84; Growth Rate (Fibroblast; [5]): -0.32; Growth Rate (Fibroblast; [10]): -0.34; Growth Rate (U2OS; [4]): 0.83
O=C1NCc2ccc3c(-c4cccc(Cl)c4)c[nH]c3c21 |  |  | -0.31 | -0.09 | -0.1 |  | -0.99 | -0.83 | -0.86 | -0.65 | -0.39 | -0.28 | -0.08 | -0.24 | -0.28 | -0.21 |  | -0.52 | -0.19 | -0.4 | Growth Rate (HEK-293T; [7]): -0.56; Growth Rate (HEK-293T; [10]): -0.07; Growth Rate (Fibroblast; [5]): -0.18; Growth Rate (Fibroblast; [10]): 0.01; Growth Rate (U2OS; [2]): 0.01; Growth Rate (U2OS; [6]): 0.17; Growth Rate (U2OS; [3]): 0.07; Growth Rate (U2OS; [4]): -0.24; Growth Rate (U2OS; [8]): 0.03; Growth Rate (U2OS; [9]): -0.13
C[C@H](NC(=O)CNC(=O)c1cccc(Cl)c1)c1ccccc1 |  | 0.84 |  | 0.96 |  | 0.36 |  |  |  |  |  | -0.7 | 0.8 | 0.91 | 0.98 |  | 0.45 |  |  |  | Growth Rate (U2OS; [4]): 0.94
CCC(C)n1ncn(-c2ccc(N3CCN(c4ccc(OC[C@@H]5CO[C@@](Cn6cncn6)(c6ccc(Cl)cc6Cl)O5)cc4)CC3)cc2)c1=O.CCC(C)n1ncn(-c2ccc(N3CCN(c4ccc(OC[C@H]5CO[C@](Cn6cncn6)(c6ccc(Cl)cc6Cl)O5)cc4)CC3)cc2)c1=O (some centres not stated) |  |  | -0.28 | 0.15 | 0.02 | -0.02 |  |  |  |  |  | -0.09 |  |  | 0.94 | 0.44 | 0.6 | -0.37 | -0.08 |  | Growth Rate (HEK-293T; [7]): 0.11; Growth Rate (HEK-293T; [10]): 0.33; Growth Rate (Fibroblast; [10]): 0.95; Growth Rate (U2OS; [9]): 0.73
CCNC(=O)[C@H]1O[C@@H](n2cnc3c(N)ncnc32)[C@H](O)[C@@H]1O.O | -0.1 | -0.27 | 0.85 |  |  | 0.3 |  | 0.46 |  |  |  | -0.43 |  |  |  | 0.8 | -0.1 | 0.74 | 0.76 | 0.87 | Growth Rate (HEK-293T; [10]): 0.81; Growth Rate (U2OS; [6]): 0.86; Growth Rate (U2OS; [3]): 0.61; Growth Rate (U2OS; [8]): 0.71; Growth Rate (U2OS; [9]): 0.74
C[S+](C)[O-] [DIMETHYL SULFOXIDE] | 0.62 | 0.67 |  |  |  | 0.18 | 0.29 |  | 0.81 |  |  | 0.71 | 0.93 | 0.98 |  | 0.93 |  |  |  | 0.86 | Growth Rate (Fibroblast; [10]): 0.93; Growth Rate (U2OS; [2]): -0.56; Growth Rate (U2OS; [6]): 0.96; Growth Rate (U2OS; [8]): 0.94; Growth Rate (U2OS; [9]): 0.98
COc1ccc2[nH]cc(CCNC(C)=O)c2c1 [MELATONIN] | 0.52 | 0.8 |  |  |  | 0.06 |  |  |  |  |  |  |  | 0.85 | 0.97 |  | 0.91 | 0.93 | 0.94 |  | Growth Rate (U2OS; [2]): 0.55
O=C(NCc1ccc(F)cc1)N1CCN2C(=O)OC(c3ccccc3)(c3ccccc3)C2C1 (configuration not stated) |  |  |  |  |  | 0.83 |  | 0.42 |  |  | 0.67 |  | 0.99 | 0.99 | 0.97 | 1 | -0.48 | 0.88 | 0.92 |  | Growth Rate (U2OS; [6]): 0.37
COc1ccc(C(=O)N2CCN(C(=O)/C=C/c3ccc(Br)cc3)CC2)cc1 |  |  |  |  |  | 0.76 | -0.51 |  | 0.15 | 0.44 | 0.08 |  | 0.66 | 0.63 | 0.73 |  |  | 0.09 |  | 0.95 | Growth Rate (Fibroblast; [5]): 0.79; Growth Rate (U2OS; [6]): -0.38; Growth Rate (U2OS; [3]): 0.8; Growth Rate (U2OS; [4]): 0.72; Growth Rate (U2OS; [8]): 0.64; Growth Rate (U2OS; [9]): 0.88
O=c1ccc2ccc(OCCCCN3CCN(c4cccc5sccc45)CC3)cc2[nH]1 [BREXPIPRAZOLE] |  |  | -0.43 |  |  |  | -0.55 | 0.52 | 0.1 | 0.08 | 0.3 | 0.42 |  |  |  | -0.32 |  | -0.63 | -0.26 | 0.53 | Growth Rate (Fibroblast; [5]): 0.81; Growth Rate (Fibroblast; [10]): 0.76; Growth Rate (U2OS; [2]): -0.19; Growth Rate (U2OS; [6]): 0.98
